The record followed here is a melting point compilation (Tetko et al.; mined from patent text by program, amines drawn as free bases though some values may be those of a salt).

Molecules are shown by their SMILES.

One may read the melting point as the temperature, or range, at which the solid turns liquid.

As to `COc1ccc2oc(Cc3ccccc3OC)c(CC#N)c2c1`, the melting point worked out at 122 °C.
The compound `OCc1coc(Cc2ccc(F)cc2)c1` returned a melting point of 45 to 47 °C.
Consider `CN1CCSC1=NCN1C(=O)CCC1=O`, for which the melting point lay within 142 to 144 °C.
Turning to `O=C(O)Cn1c(=O)sc2cc(-c3ccccc3)c(Cl)cc21`, the melting point is 262 to 266 °C.
`O=S(=O)(NC[C@@H](CO)NC(c1ccccc1)(c1ccccc1)c1ccccc1)c1ccc(Oc2ccccc2)cc1` yielded a melting point of 67 to 70 °C.
Next, `Cc1nn(-c2ccc(C(F)(F)F)cn2)cc1CCCOc1cc(CCC(=O)O)n(-c2ccccc2)n1`: 125 to 126 °C; `COc1ccc(-c2cc(C)cn2-c2ccc(S(C)(=O)=O)cc2)cc1`: 159 to 161 °C.
On to `Cc1ccsc1C(=O)C[N+](=O)[O-]`, for which the melting point lay within 59 to 61 °C.
For `Fc1ccc(CC2CCN(CCOc3ccc4c(c3)=NC(=S)N=4)CC2)cc1`, the melting point lay in the range of 278 to 280 °C.
Take `O=C(NCc1cccnc1)c1ccc(OCc2ccc3ccccc3n2)cc1C1(c2ccccc2)CC2CCC1C2` (configuration not stated): the melting point was 179 to 181 °C.
Regarding `Nc1nc(Oc2c(Cl)cccc2Cl)nc2nc(-c3ccco3)nn12`, the melting point lay in the range of 270 to 272 °C.
For the compound `Cc1ccc(SC(C#N)c2ccc(C(=O)c3cccs3)cc2)cc1` (configuration not stated), the melting point is 124 to 126 °C.
The compound `O=C(O)Cc1ccc(CCN2CCNCC2)cc1` registered a melting point of 238 to 239 °C.
In the case of `CC(C)CCOc1ccc(C(=O)c2c(N)sc3c2CCN(Cc2ccccc2)C3)cc1`, the melting point was 106 to 107 °C.
As for `Cc1sc(Nc2cc(F)ccn2)nc1-c1cn[nH]c1`, the melting point turned out to be 283 °C.
In turn, `COc1ccc(CCNC(=O)C(F)(F)F)c2c1NC(=O)C2` showed a melting point of 175 to 178 °C.
`COc1ccc(S(=O)(=O)Nc2nc(-c3cccc([N+](=O)[O-])c3)c(CN3CCOCC3)s2)cc1OC` showed a melting point of 143 °C.
Next, `CCCOC(=O)C(C)Oc1ccc(Oc2cnc3cc(Cl)ccc3n2)cc1F` (configuration not stated): 70 to 72 °C; `CC(=O)OCCCc1cccc(-c2nc(=O)c3ccccc3s2)n1`: 141 to 142 °C.
In the case of `CCCCC1CCCC2=C1C(=O)c1ccccc1C2=O` (configuration not stated), the melting point lay in the range of 64 to 65 °C.
Compound `O=C(c1cc(=O)c2cc(O)ccc2[nH]1)N1CCC(Cc2ccccc2)CC1` displayed a melting point of 127 °C.
The result for `COC(=O)C(CS)NC(=O)CNC(=O)CS` (configuration not stated) reads 67 to 69 °C.
Next, `NC(=O)c1ccc2nc3ccsc3c(=O)n2c1`: 319 to 320 °C; `N#CCc1cccc(CCc2ccccc2C(=O)O)c1`: 113 to 120 °C; `O=C(O)c1ccccc1SCCCOc1ccc(CCc2ccncc2)cc1`: 151 to 153 °C.
Next, `CCC(=O)c1nc(C(C)(C)C)c(O)c(C(C)(C)C)n1`: 123 to 125 °C; `CN1CCC(OC(c2ccccc2)c2nc3cccc(N)c3[nH]2)CC1` (configuration not stated): 96.7 °C.
Turning to `COc1ccc([C@@H]2Sc3cc(C)c(C)cc3N(CCN(C)C)C(=O)[C@@H]2O)cc1`, the melting point is 117 to 118 °C.
In turn, `CN1CCN=C1CC(c1ccccc1)c1ccccc1` had a melting point of 108 to 110 °C.
The result for `CCCCOc1ccc(CO)c(Oc2ncc(C(F)(F)F)cc2Cl)c1` reads 77.8 to 79.2 °C; that for `COc1cc2c3c(cccc3c1)C(=O)c1ccccc1-2`, 168 to 169 °C.
`CCOC(C)OC1CCC2(C)C3=C(CCC2C1(C)C)C1=CCC(C(C)OCc2ccccc2)C1(C)CC3` (configuration not stated) showed a melting point of 138 to 143 °C.
`Oc1ccc(Oc2ccc(O)c(Br)c2)cc1Br` returned a melting point of 106 °C.
With `CC(C)n1nc(-c2cnc(N)nc2-c2cccc(F)c2)ccc1=O`, the melting point fell in the range of 220 to 222 °C.
The compound `CN1c2ccccc2C(c2ccccc2F)=NCC1CNC(=O)C(Cc1c[nH]c2ccccc12)NC(=O)OC(C)(C)C` (configuration not stated) displayed a melting point of 124 °C.
Next, `COc1cc(C=CC(=O)CCCCCBr)cc(OC)c1`: 73 to 76 °C; `COC(=O)CON1C(=O)c2ccccc2C1=O`: 137 to 142 °C.
Take `C[C@]12CCC(=O)C=C1CCc1cc(Cl)ccc12`: the melting point is 94 to 96 °C.
`CCCCCCCOc1ccc(C(=O)O)cc1OCCCCCCC` yielded a melting point of 122 to 123 °C.
As for `N#Cc1cnc2cc(/C=C/CCCN3CCOCC3)ccc2c1Nc1ccc(Cl)cc1Cl`, the melting point was in the range of 142 to 144 °C.
Next, `CC(=O)c1cc(I)cc(S(N)(=O)=O)c1`: 188 to 189 °C; `CNc1nc(-c2cccnc2)nc(NC)c1C(=O)Nc1ccc(C)c(C)c1`: 285 to 286 °C.
In turn, `CCCCOc1ccc(CCNc2ncnc(CC)c2C(=O)O)cc1` yielded a melting point of 208 to 211 °C.
With `C=CCc1ccc(O)c(-c2cc(CC=C)ccc2O)c1`, the melting point lay within 101 to 103 °C.
In the case of `COc1ccc(S(=O)(=O)NCC(C(=O)NO)C2(CC(C)C)CCN(CCc3ccccc3)C2=O)cc1` (configuration not stated), the melting point lay within 195 to 196 °C.
As to `CC(=O)Oc1ccc2cc(-c3ccc(C(=O)O)cc3)ccc2c1`, the melting point is 254 to 256 °C.
Next, `Oc1c2c(nc3ccc(C4CCCCC4)cc13)CCCC2`: 292 to 295 °C.
The compound `COCCc1nc2c(N)nc3cc(-c4ccccc4)ccc3c2n1CC(C)(C)O` registered a melting point of 226 to 227 °C.
As to `NC(=O)/C(=N/O)c1ccccc1Oc1ccccc1`, the melting point is 157 to 159 °C.
`O=C(OCC1OCCS1=O)c1ccccc1` (configuration not stated) gave a melting point of 70 to 72 °C.
`CCOCc1nc2c(N)nc3cc(OCCCCCCNS(C)(=O)=O)ccc3c2n1CC(C)(C)NC(=O)NC(C)C` had a melting point of 190 to 194 °C.
Take `CC1(C)NC(=S)NC1=S`: the melting point was determined as 144 °C.
Next, `CC(C)c1ccc(C=O)c(=O)c(O)c1`: 76 °C; `N#CC1=C(c2ccccc2)Nc2n[nH]cc2C1c1cccc(Cl)c1Cl` (configuration not stated): 162 °C; `Cc1nc(-c2cccc(-n3cnc4cc(-c5ccoc5)ccc43)c2)cs1`: 136 to 138 °C.
In turn, `C[C@@H]1CN(C(=O)OC(C)(C)C)C[C@H]2Cc3cc(Br)c(CO)nc3N21` showed a melting point of 110 to 112 °C.
The result for `COP(=S)(OC)Oc1nsc(SC)n1` reads 45 °C; that for `CC(C)c1cc2c(=O)n3cc(C#N)ccc3nc2s1`, 225 to 226 °C.
The compound `COc1ccc(C(=O)N2CCC(N3CC4(CCN(Cc5ccccc5)CC4)c4ccccc43)c3ccccc32)cc1OC` (configuration not stated) yielded a melting point of 155 to 157 °C.
`COc1cccc2c1OC(CN1CC=C(c3c[nH]c4cc(F)ccc34)CC1)CO2` (configuration not stated) came in with a melting point of 184 to 185 °C.
In turn, `NC(N)=Nc1nc(-c2cccc(CNC(=O)CSCc3ccco3)n2)cs1` registered a melting point of 182 °C.
Next, `O=C1Nc2ccccc2N(C(=O)C2CC2)c2cscc21`: 245 to 247 °C; `CCOC(=O)c1cccc(OP(=O)(CCN2CCCNc3c2c(=O)c3=O)Oc2cccc(C(=O)OCC)c2)c1`: 116 to 117 °C; `Nc1nc(N)c(C(=O)NC(Cc2ccccc2)C(=O)NCCNCC(O)COc2cccc3ccccc23)nc1Cl` (configuration not stated): 142 to 146 °C.
In turn, `Cc1cc(Br)cnc1CCCCNC1=NS(=O)(=O)c2cc(Br)ccc21` came in with a melting point of 224 to 232 °C.
Turning to `CC(C)(C#N)Cc1cccc(-c2cccc(CC(C)(C)C#N)c2)c1`, the melting point is 96 to 103 °C.
For the compound `OCc1cc(F)c(CO)cc1F`, the melting point lay within 268 to 271 °C.
Regarding `CC1(CCS)C(=O)N2CCCC(C(=O)O)N2C1=O` (configuration not stated), the melting point is 165 to 168 °C.
Next, `Nc1ncc(CN2CC=C(c3ccccc3)CC2)c(N)n1`: 239 to 241 °C.
Take `CCCCC[C@@H](CNC(=O)Nc1c(OC(C)C)c(C)nn1-c1ccccc1)c1cccc2c1OCO2`: the melting point was determined as 126 °C.
The result for `O=C(O)c1cn(-c2ccc(O)cc2)c2cc(F)c(F)cc2c1=O` reads 288 to 290 °C.
`O=c1[nH]c2ccccc2n1CCN1CCC(Cc2c[nH]c3ccc(F)cc23)CC1` showed a melting point of 220 °C.
Regarding `CC(=O)Oc1ccc(CCc2ccc(NC(=O)C3=C(O)c4ccccc4SC3)cc2)cc1OC(C)=O`, the melting point was in the range of 214 to 215 °C.
The result for `CC12C=CC(=O)C=C1CCC1C2=CCC2(C)C(C(=O)CCl)=CCC12` (configuration not stated) reads 136 to 138 °C; that for `CC(=O)Nc1cc2c(cc1O)CCN(Cc1ccccc1)CC2c1ccccc1` (configuration not stated), 180 °C.
`N#CC(C(N)=O)c1ccc(F)c(Cl)c1` (configuration not stated): the melting point fell in the range of 156 to 157 °C.
The result for `OCC1(Nc2nc(-c3ccc(Br)cc3)cs2)CC1` reads 129 to 131 °C; that for `O=C(O)/C=C/C=C(c1ccc(Cl)cc1)c1ccc(Cl)cc1`, 213 to 215 °C.
Next, `CC(NC(=O)OCc1ccccc1)NC(=O)C1C(C)(C)CCC1(C)C` (configuration not stated): 146 °C; `CC(C)(CF)C(=O)C(Oc1ccc(Cl)cc1)n1cncn1` (configuration not stated): 60 to 63 °C; `C=C(C)OC(=O)N1C(=O)[C@H](C)Nc2cc(Cl)ccc21`: 158 to 159 °C.
Next, `CC12CCCC=C1CCC1C2CCC2(C)C(O)CCC12` (configuration not stated): 144 to 147 °C; `Nc1ncc(CCc2ccccc2)cc1[N+](=O)[O-]`: 145 to 146 °C; `COc1cccc(C=O)c1`: 83 to 84 °C.
For the compound `Nc1nc(-c2ccc(CCCCCl)s2)cs1`, the melting point fell in the range of 99 to 100 °C.
`CC(C)(C)OC(=O)COc1cc(NC(=O)OC(C)(C)C)c([N+](=O)[O-])cc1-c1ccc(F)cc1` showed a melting point of 92 to 93 °C.
On to `COC(=O)c1ccc(C=CC(=O)Nc2cnc3c(C)cc(C)cc3c2-c2ccccc2Cl)cc1`, for which the melting point lay within 225 to 226 °C.
As for `Cn1c(=O)n(C)c2cc(C(=O)CSCCC(=O)O)ccc21`, the melting point lay in the range of 174 to 176 °C.
The compound `CC(C)N(CCCc1ccccc1)[C@H]1CC[C@H](c2ccc(O)cc2)CC1` showed a melting point of 146 to 154 °C.
In turn, `COc1cc2c(O)cnnc2cc1OCc1ccccc1` displayed a melting point of 262 to 264 °C.
As for `O=S(=O)(Nc1ccc(Cl)cc1-c1nc2ccc(S(=O)(=O)N3CCOCC3)cc2[nH]1)c1ccc(Cl)cc1`, the melting point was in the range of 225 to 228 °C.
For `COc1cc(CC2(Cc3ccnc(OC)c3)c3ccccc3-c3ncccc32)ccn1`, the melting point lay in the range of 138 to 140 °C.
